This is an account of results in patent US8741836B2, “Polypeptides” (Novo Nordisk A/S, priority 2011, dated 2014).

Starred links: 1 amine or outer side, 2 acyl side, 3 side chain; linkers in the order of their positions; H or OH if unused. Positions of bridges follow the written chain, without caps; N, C: chain ends. Residues, ends and D or L forms follow the SMILES beside them. *: point of attachment. C20 diacid = O=C(O)CCCCCCCCCCCCCCCCCCC(=O)*; C18 diacid = O=C(O)CCCCCCCCCCCCCCCCC(=O)*; γGlu = O=C(O)[C@H](CCC(=O)[*:2])N[*:1] A value given as a limit tells only on which side of the number the result lay.

A short description of the data set: Assay (III) ThT fibrillation assay for physical stability. It is filed as physicochemical. The settings on record: for ThT pH 4.0 lag time: pH 4.0, ThT fibrillation assay. Put shortly:
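Freshly prepared, pH-adjusted formulations with 1 μM ThT incubated at 37 °C under 960 rpm orbital shaking (1 mm), fluorescence (ex 444, em 485 nm) read every 20 min. […] Peptide content before and after measured by reverse-phase HPLC against pramlintide standard.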

For the compound `CC[C@H](C)[C@H](NC(=O)[C@@H]1CCCN1C(=O)CNC(=O)[C@H](Cc1ccccc1)NC(=O)[C@H](CC(N)=O)NC(=O)[C@H](CCC(N)=O)NC(=O)[C@H](CO)NC(=O)[C@H](CO)NC(=O)[C@H](Cc1c[nH]cn1)NC(=O)[C@H](Cc1c[nH]cn1)NC(=O)[C@H](CC(C)C)NC(=O)[C@H](Cc1ccccc1)NC(=O)[C@H](CCC(=O)O)NC(=O)[C@H](C)NC(=O)[C@H](CC(C)C)NC(=O)[C@H](CCCNC(=N)N)NC(=O)[C@H](CCC(N)=O)NC(=O)[C@@H](NC(=O)[C@H](C)NC(=O)[C@@H]1CSSC[C@H](NC(=O)[C@H](CCCCN)NC(=O)CC[C@H](NC(=O)CCCCCCCCCCCCCCCCCCC(=O)O)C(=O)O)C(=O)N[C@@H](CC(N)=O)C(=O)N[C@@H]([C@@H](C)O)C(=O)N[C@@H](C)C(=O)N[C@@H]([C@@H](C)O)C(=O)N1)[C@@H](C)O)C(=O)N[C@@H](CC(C)C)C(=O)N1CCC[C@H]1C(=O)N1CCC[C@H]1C(=O)N[C@H](C(=O)N[C@@H](CC(N)=O)C(=O)N[C@H](C(=O)NCC(=O)N[C@@H](CO)C(=O)N[C@@H](CCC(N)=O)C(=O)N[C@H](C(=O)N1CCC[C@H]1C(N)=O)[C@@H](C)O)C(C)C)[C@@H](C)O` [Example 136, N-alpha-[(S)-4-Carboxy-4-(19-carboxynonadecanoylamino)butyryl]-[Glu14,His17,Gln21,Gln35,Pro37]-pramlintide] ({C20 diacid-γGlu}-KCNTATCATQRLAEFLHHSSQNFGPILPPTNVGSQTP-NH2; disulfide 2-7 (inferred)), the “ThT pH 4.0 lag time (physical stability in fibrillogenesis assay)” value is more than 45 h and the “ThT pH 4.0 lag time” value was more than 45 h.

Turning to `CC[C@H](C)[C@H](NC(=O)[C@@H]1CCCN1C(=O)CNC(=O)[C@H](Cc1ccccc1)NC(=O)[C@H](CC(N)=O)NC(=O)[C@H](CC(N)=O)NC(=O)[C@H](CO)NC(=O)[C@H](CO)NC(=O)[C@H](CCCNC(=N)N)NC(=O)[C@H](Cc1c[nH]cn1)NC(=O)[C@H](CC(C)C)NC(=O)[C@H](Cc1ccccc1)NC(=O)[C@H](CCC(=O)O)NC(=O)[C@H](C)NC(=O)[C@H](CC(C)C)NC(=O)[C@H](CCCNC(=N)N)NC(=O)[C@H](CCC(N)=O)NC(=O)[C@@H](NC(=O)[C@H](C)NC(=O)[C@@H]1CSSC[C@H](NC(=O)[C@H](Cc2c[nH]cn2)NC(=O)CC[C@H](NC(=O)CCCCCCCCCCCCCCCCCCC(=O)O)C(=O)O)C(=O)N[C@@H](CC(N)=O)C(=O)N[C@@H]([C@@H](C)O)C(=O)N[C@@H](C)C(=O)N[C@@H]([C@@H](C)O)C(=O)N1)[C@@H](C)O)C(=O)N[C@@H](CC(C)C)C(=O)N1CCC[C@H]1C(=O)N1CCC[C@H]1C(=O)N[C@H](C(=O)N[C@@H](CC(N)=O)C(=O)N[C@H](C(=O)NCC(=O)N[C@@H](CO)C(=O)N[C@@H](Cc1c[nH]cn1)C(=O)N[C@H](C(=O)N[C@@H](Cc1ccc(O)cc1)C(N)=O)[C@@H](C)O)C(C)C)[C@@H](C)O` [Example 77, N-alpha-[(S)-4-Carboxy-4-(19-carboxynonadecanoylamino)butyryl]-[His1,Glu14,His17,Arg18,His35]-pramlintide] ({C20 diacid-γGlu}-HCNTATCATQRLAEFLHRSSNNFGPILPPTNVGSHTY-NH2; disulfide 2-7 (inferred)), the “ThT pH 4.0 lag time” value was more than 45 h.

Turning to `CC[C@H](C)[C@H](NC(=O)[C@@H]1CCCN1C(=O)CNC(=O)[C@H](Cc1ccccc1)NC(=O)[C@H](CC(N)=O)NC(=O)[C@H](CC(N)=O)NC(=O)[C@H](CO)NC(=O)[C@H](CO)NC(=O)[C@H](Cc1c[nH]cn1)NC(=O)[C@H](Cc1c[nH]cn1)NC(=O)[C@H](CC(C)C)NC(=O)[C@H](Cc1ccccc1)NC(=O)[C@H](CCC(=O)O)NC(=O)[C@H](C)NC(=O)[C@H](CC(C)C)NC(=O)[C@H](CCCNC(=N)N)NC(=O)[C@H](CCC(N)=O)NC(=O)[C@@H](NC(=O)[C@H](C)NC(=O)[C@@H]1CSSC[C@H](NC(=O)[C@H](CCCCN)NC(=O)CC[C@H](NC(=O)CCCCCCCCCCCCCCCCCCC(=O)O)C(=O)O)C(=O)N[C@@H](CC(N)=O)C(=O)N[C@@H]([C@@H](C)O)C(=O)N[C@@H](C)C(=O)N[C@@H]([C@@H](C)O)C(=O)N1)[C@@H](C)O)C(=O)N[C@@H](CC(C)C)C(=O)N1CCC[C@H]1C(=O)N1CCC[C@H]1C(=O)N[C@H](C(=O)N[C@@H](CC(N)=O)C(=O)N[C@H](C(=O)NCC(=O)N[C@@H](CO)C(=O)N[C@@H](CCCCN)C(=O)N[C@H](C(=O)N[C@@H](Cc1ccc(O)cc1)C(N)=O)[C@@H](C)O)C(C)C)[C@@H](C)O` [Example 113, N-alpha-[(S)-4-Carboxy-4-(19-carboxynonadecanoylamino)butyryl]-[Glu14,His17,Lys35]-pramlintide] ({C20 diacid-γGlu}-KCNTATCATQRLAEFLHHSSNNFGPILPPTNVGSKTY-NH2; disulfide 2-7 (inferred)), the “ThT pH 4.0 lag time (physical stability in fibrillogenesis assay)” value was more than 45 h and the “ThT pH 4.0 lag time” value is on record as more than 45 h.

On to `CC[C@H](C)[C@H](NC(=O)[C@@H]1CCCN1C(=O)CNC(=O)[C@H](Cc1ccccc1)NC(=O)[C@H](CO)NC(=O)[C@H](CO)NC(=O)[C@H](CO)NC(=O)[C@H](CO)NC(=O)[C@H](CCCNC(=N)N)NC(=O)[C@@H](NC(=O)[C@H](CC(C)C)NC(=O)[C@H](Cc1ccccc1)NC(=O)[C@H](CCC(=O)O)NC(=O)[C@H](C)NC(=O)[C@H](CC(C)C)NC(=O)[C@H](CCCNC(=N)N)NC(=O)[C@H](CCC(N)=O)NC(=O)[C@@H](NC(=O)[C@H](C)NC(=O)[C@@H]1CSSC[C@H](NC(=O)[C@H](CCCCN)NC(=O)CC[C@H](NC(=O)CCCCCCCCCCCCCCCCCCC(=O)O)C(=O)O)C(=O)N[C@@H](CC(N)=O)C(=O)N[C@@H]([C@@H](C)O)C(=O)N[C@@H](C)C(=O)N[C@@H]([C@@H](C)O)C(=O)N1)[C@@H](C)O)C(C)C)C(=O)N[C@@H](CC(C)C)C(=O)N[C@@H](CO)C(=O)N[C@@H](CO)C(=O)N[C@H](C(=O)N[C@@H](CC(=O)O)C(=O)N[C@H](C(=O)NCC(=O)N[C@@H](CO)C(=O)N[C@@H](CC(=O)O)C(=O)N[C@H](C(=O)N1CCC[C@H]1C(N)=O)[C@@H](C)O)C(C)C)[C@@H](C)O` [Example 170, N-alpha-[(S)-4-Carboxy-4-(19-carboxynonadecanoylamino)butyryl]-[Glu14,Arg18,Ser21,Ser22,Ser28,Ser29,Asp31,Asp35,Pro37]-pramlintide] ({C20 diacid-γGlu}-KCNTATCATQRLAEFLVRSSSSFGPILSSTDVGSDTP-NH2; disulfide 2-7), for which the “ThT pH 4.0 lag time (physical stability in fibrillogenesis assay)” value is listed as more than 45 h and the “ThT pH 4.0 lag time” value is more than 45 h.

With `CC[C@H](C)[C@H](NC(=O)[C@@H]1CCCN1C(=O)CNC(=O)[C@H](Cc1ccccc1)NC(=O)[C@H](CC(N)=O)NC(=O)[C@H](CC(N)=O)NC(=O)[C@H](CO)NC(=O)[C@H](CO)NC(=O)[C@H](Cc1c[nH]cn1)NC(=O)[C@H](CCCNC(=N)N)NC(=O)[C@H](CC(C)C)NC(=O)[C@H](Cc1ccccc1)NC(=O)[C@H](CCC(=O)O)NC(=O)[C@H](C)NC(=O)[C@H](CC(C)C)NC(=O)[C@H](CCCNC(=N)N)NC(=O)[C@H](CCC(N)=O)NC(=O)[C@@H](NC(=O)[C@H](C)NC(=O)[C@@H]1CSSC[C@H](NC(=O)[C@H](CCCCN)NC(=O)CC[C@H](NC(=O)CCCCCCCCCCCCCCCCC(=O)O)C(=O)O)C(=O)N[C@@H](CC(N)=O)C(=O)N[C@@H]([C@@H](C)O)C(=O)N[C@@H](C)C(=O)N[C@@H]([C@@H](C)O)C(=O)N1)[C@@H](C)O)C(=O)N[C@@H](CC(C)C)C(=O)N1CCC[C@H]1C(=O)N1CCC[C@H]1C(=O)N[C@H](C(=O)N[C@@H](CC(N)=O)C(=O)N[C@H](C(=O)NCC(=O)N[C@@H](CO)C(=O)N[C@@H](Cc1c[nH]cn1)C(=O)N[C@H](C(=O)N[C@@H](Cc1ccc(O)cc1)C(N)=O)[C@@H](C)O)C(C)C)[C@@H](C)O` [Example 61, N-alpha-[(S)-4-Carboxy-4-(17-carboxyheptadecanoylamino)butyryl]-[Glu14,Arg17,His35]-pramlintide] ({C18 diacid-γGlu}-KCNTATCATQRLAEFLRHSSNNFGPILPPTNVGSHTY-NH2; disulfide 2-7), the “ThT pH 4.0 lag time” value is reported as more than 45 h.

Turning to `CC[C@H](C)[C@H](NC(=O)[C@@H]1CCCN1C(=O)CNC(=O)[C@H](Cc1ccccc1)NC(=O)[C@H](CC(N)=O)NC(=O)[C@H](CC(N)=O)NC(=O)[C@H](CO)NC(=O)[C@H](CO)NC(=O)[C@H](Cc1c[nH]cn1)NC(=O)[C@H](Cc1c[nH]cn1)NC(=O)[C@H](CC(C)C)NC(=O)[C@H](Cc1ccccc1)NC(=O)[C@H](CCC(=O)O)NC(=O)[C@H](C)NC(=O)[C@H](CC(C)C)NC(=O)[C@H](CCCNC(=N)N)NC(=O)[C@H](CCC(N)=O)NC(=O)[C@@H](NC(=O)[C@H](C)NC(=O)[C@@H]1CSSC[C@H](NC(=O)[C@H](CCCCN)NC(=O)[C@H](Cc2c[nH]cn2)NC(=O)CC[C@H](NC(=O)CCCCCCCCCCCCCCCCC(=O)O)C(=O)O)C(=O)N[C@@H](CC(N)=O)C(=O)N[C@@H]([C@@H](C)O)C(=O)N[C@@H](C)C(=O)N[C@@H]([C@@H](C)O)C(=O)N1)[C@@H](C)O)C(=O)N[C@@H](CC(C)C)C(=O)N1CCC[C@H]1C(=O)N1CCC[C@H]1C(=O)N[C@H](C(=O)N[C@@H](CC(N)=O)C(=O)N[C@H](C(=O)NCC(=O)N[C@@H](CO)C(=O)N[C@@H](Cc1c[nH]cn1)C(=O)N[C@H](C(=O)N[C@@H](Cc1ccc(O)cc1)C(N)=O)[C@@H](C)O)C(C)C)[C@@H](C)O` [Example 70, N-alpha-[(S)-4-Carboxy-4-(17-carboxyheptadecanoylamino)butyryl]-His-[Glu14,His17,His35]-pramlintide] ({C18 diacid-γGlu}-HKCNTATCATQRLAEFLHHSSNNFGPILPPTNVGSHTY-NH2; disulfide 3-8 (inferred)), the “ThT pH 4.0 lag time” value was more than 45 h.
